Reference: patent publication US20130143929A1, “FUNGICIDAL IMIDAZOLES” (EI DU PONT DE NEMOURS AND COMPANY, priority 2010, published 2013)
Marks after values point to notes of the source that are not given here.

Assays:
Format in all cases: in vivo
[1] = test system: Puccinia recondite f. sp. tritici (the causal agent of wheat leaf rust); assay: Test A: wheat leaf rust, preventive spray on wheat seedlings, visual disease rating; details: for Test A rating (100 = 100% disease control, 0 = no disease control relative to the controls): wheat leaf rust, preventive spray on wheat seedlings
In short: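 Wheat seedlings were sprayed to run-off with compound suspended in acetone/water containing 250 ppm Trem 014 (200 ppm ≈ 800 g/ha; some at 40 ppm). Puccinia recondite spores were inoculated the next day. Plants were held 24 h saturated at 20° C, then 7 days at 20° C, and disease control was rated visually on a 0–100 scale against controls.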

[2] = test system: Septoria tritici (the causal agent of wheat leaf blotch); assay: Test B: wheat leaf blotch, preventive spray on wheat seedlings, visual disease rating; details: for Test B rating (100 = 100% disease control, 0 = no disease control relative to the controls): wheat leaf blotch, preventive spray on wheat seedlings
In short: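 Wheat seedlings sprayed to run-off with compound suspension (acetone/water with 250 ppm Trem 014; 200 ppm ≈ 800 g/ha, some at 40 ppm), inoculated next day with Septoria tritici spores. 48 h saturated humidity at 24 °C, then 19 days at 20 °C; visual rating, 100 = full control.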

[3] = test system: Botrytis cinerea (the causal agent of tomato Botrytis); assay: Test C: tomato Botrytis, preventive spray on tomato seedlings, visual disease rating; details: for Test C rating (100 = 100% disease control, 0 = no disease control relative to the controls): tomato Botrytis, preventive spray on tomato seedlings
In short: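 Test suspension (acetone/water with 250 ppm Trem 014; 200 ppm equivalent to 800 g/ha) sprayed to run-off on tomato seedlings; B. cinerea spores inoculated next day. After 48 h saturated humidity at 20° C then 3 days at 24° C, disease rated visually as % control relative to untreated controls (0–100).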

[4] = test system: Blumeria graminis f. sp. tritici (also known as Erysiphe graminis f. sp. tritici, the causal agent of wheat powdery mildew); assay: Test D: wheat powdery mildew, preventive spray on wheat seedlings, visual disease rating; details: for Test D rating (100 = 100% disease control, 0 = no disease control relative to the controls): wheat powdery mildew, preventive spray on wheat seedlings
In short: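 Compound suspended in acetone/water (50/50) with 250 ppm Trem 014 and sprayed to run-off on wheat seedlings (200 ppm ≈ 800 g/ha), then inoculated next day with spore dust. Disease rated visually after 8 days at 20 °C as % control relative to untreated plants (0-100).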

[5] = no asterisk (standard test suspension concentration, not 40 ppm)
[6] = asterisk: 40 ppm test suspension
[7] = no asterisk: standard test suspension concentration, 100 = 100% disease control, 0 = no control relative to controls

SMILES: Cc1ncc(C(O)c2ccc(F)cc2Cl)n1-c1c(F)cc(F)cc1F (stereo not drawn) [Compound 167, α-(2-chloro-4-fluorophenyl)-2-methyl-1-(2,4,6-trifluorophenyl)-1H-imidazole-5-methanol]
- Test A rating (100 = 100% disease control, 0 = no disease control relative to the controls) [1, 5]: 100%
- Test B rating (100 = 100% disease control, 0 = no disease control relative to the controls) [2, 5]: 100%
- Test C rating (100 = 100% disease control, 0 = no disease control relative to the controls) [3, 5]: 33%
- Test D rating (100 = 100% disease control, 0 = no disease control relative to the controls) [4, 5]: 0%

SMILES: COc1ccc(C(O)c2c(Br)nc(C)n2-c2c(F)cc(F)cc2Cl)c(Cl)c1 (stereo not drawn) [compound 349]
- Test A rating (100 = 100% disease control, 0 = no disease control relative to the controls) [1, 6]: 100* %
- Test B rating (100 = 100% disease control, 0 = no disease control relative to the controls) [2, 6]: 100* %
- Test C rating (100 = 100% disease control, 0 = no disease control relative to the controls) [3, 6]: 98* %
- Test D rating (100 = 100% disease control, 0 = no disease control relative to the controls) [4, 6]: 90* %

SMILES: Cc1nc(Cl)n(-c2c(F)cc(F)cc2Cl)c1C(O)c1ccc(F)cc1Cl (racemic) [compound 9]
- Test A rating (100 = 100% disease control, 0 = no disease control relative to the controls) [1, 5]: 100%
- Test B rating (100 = 100% disease control, 0 = no disease control relative to the controls) [2, 5]: 100%
- Test C rating (100 = 100% disease control, 0 = no disease control relative to the controls) [3, 5]: 100%
- Test D rating (100 = 100% disease control, 0 = no disease control relative to the controls) [4, 5]: 100%

SMILES: Cc1nc(Br)c(C(O)c2ccc(Cl)cc2Cl)n1-c1c(F)cc(Cl)cc1F (stereo not drawn) [compound 113]
- Test A rating (100 = 100% disease control, 0 = no disease control relative to the controls) [1, 6]: 95* %
- Test B rating (100 = 100% disease control, 0 = no disease control relative to the controls) [2, 6]: 100* %
- Test C rating (100 = 100% disease control, 0 = no disease control relative to the controls) [3, 6]: 0* %
- Test D rating (100 = 100% disease control, 0 = no disease control relative to the controls) [4, 6]: 0* %

SMILES: Cc1nc(Br)c(C(O)c2ccc(F)cc2Cl)n1-c1ccc(F)cc1Cl (stereo not drawn) [compound 142]
- Test A rating (100 = 100% disease control, 0 = no disease control relative to the controls) [1, 5]: 100%
- Test B rating (100 = 100% disease control, 0 = no disease control relative to the controls) [2, 5]: 100%
- Test C rating (100 = 100% disease control, 0 = no disease control relative to the controls) [3, 5]: 99%
- Test D rating (100 = 100% disease control, 0 = no disease control relative to the controls) [4, 5]: 71%

SMILES: Cc1ncc(C(O)c2ccc(F)cc2F)n1-c1c(F)cccc1F (stereo not drawn) [compound 97]
- Test A rating (100 = 100% disease control, 0 = no disease control relative to the controls) [1, 6]: 95* %
- Test B rating (100 = 100% disease control, 0 = no disease control relative to the controls) [2, 6]: 100* %
- Test C rating (100 = 100% disease control, 0 = no disease control relative to the controls) [3, 6]: 0* %
- Test D rating (100 = 100% disease control, 0 = no disease control relative to the controls) [4, 6]: 0* %

SMILES: Cc1ncc(C(O)c2ccc(Cl)cc2Cl)n1-c1ccc(F)cc1F (racemic) [compound 256]
- Test A rating (100 = 100% disease control, 0 = no disease control relative to the controls) [1, 5]: 55%
- Test B rating (100 = 100% disease control, 0 = no disease control relative to the controls) [2, 5]: 6%
- Test C rating (100 = 100% disease control, 0 = no disease control relative to the controls) [3, 5]: 0%
- Test D rating (100 = 100% disease control, 0 = no disease control relative to the controls) [4, 5]: 0%

SMILES: Cc1ncc(C(O)c2ccc(F)cc2F)n1-c1ccc(F)cc1Cl (stereo not drawn) [compound 396]
- Test A rating (% disease control, wheat leaf rust) [1, 7]: 100%
- Test B rating (% disease control, wheat leaf blotch) [2, 7]: 100%
- Test C rating (% disease control, tomato Botrytis) [3, 7]: 87%
- Test D rating (% disease control, wheat powdery mildew) [4, 7]: 0%

SMILES: Cc1cc(F)ccc1C(O)c1cnc(C)n1-c1c(F)cc(Cl)cc1F (stereo not drawn) [compound 109]
- Test A rating (100 = 100% disease control, 0 = no disease control relative to the controls) [1, 6]: 99* %
- Test B rating (100 = 100% disease control, 0 = no disease control relative to the controls) [2, 6]: 94* %
- Test C rating (100 = 100% disease control, 0 = no disease control relative to the controls) [3, 6]: 0* %
- Test D rating (100 = 100% disease control, 0 = no disease control relative to the controls) [4, 6]: 0* %

SMILES: Cc1cc(F)ccc1C(O)c1c(Cl)nc(Cl)n1-c1ccc(F)cc1Cl (single isomer, unassigned) [compound 50]
- Test A rating (100 = 100% disease control, 0 = no disease control relative to the controls) [1, 5]: 100%
- Test B rating (100 = 100% disease control, 0 = no disease control relative to the controls) [2, 5]: 100%
- Test C rating (100 = 100% disease control, 0 = no disease control relative to the controls) [3, 5]: 100%
- Test D rating (100 = 100% disease control, 0 = no disease control relative to the controls) [4, 5]: 90%

SMILES: Cc1cccc(C)c1-n1c(C)nc(Cl)c1C(O)c1ccc(F)cc1Cl (racemic) [compound 226]
- Test A rating (100 = 100% disease control, 0 = no disease control relative to the controls) [1, 5]: 94%
- Test B rating (100 = 100% disease control, 0 = no disease control relative to the controls) [2, 5]: 98%
- Test C rating (100 = 100% disease control, 0 = no disease control relative to the controls) [3, 5]: 6%
- Test D rating (100 = 100% disease control, 0 = no disease control relative to the controls) [4, 5]: 0%

SMILES: Cc1cccc(Br)c1-n1c(C)nc(Br)c1C(O)c1ccc(F)cc1Cl (stereo not drawn) [compound 335]
- Test A rating (100 = 100% disease control, 0 = no disease control relative to the controls) [1, 6]: 98* %
- Test B rating (100 = 100% disease control, 0 = no disease control relative to the controls) [2, 6]: 86* %
- Test C rating (100 = 100% disease control, 0 = no disease control relative to the controls) [3, 6]: 35* %
- Test D rating (100 = 100% disease control, 0 = no disease control relative to the controls) [4, 6]: 64* %
